Measurements: patent publication US7612075B2, “Substituted oxoazaheterocyclyl compounds” (Aventis Pharmaceuticals Inc., priority 1998, dated 2009)
Where a name gives a salt, the structure may show the parent alone. No end group written: not given here.

What was measured:
[1] = tested on: rabbit carotid artery; details: rabbit carotid artery air-drying injury model, after vascular injury; cited from earlier work
[2] = tested on: rat cultured vascular smooth muscle cells; details: cited from earlier work
[3] = tested on: human cultured vascular smooth muscle cells; details: cited from earlier work

For `N=C(N)c1ccc(CN2CCN(Cc3nc4ccc(Cl)cc4[nH]3)CC2=O)cc1` (as salt: salt) [Example 122, 4-[4-(6-Chloro-1H-benzoimidazol-2-ylmethyl)-2-oxo-piperazin-1-ylmethyl]-benzamidine], which melting point is on record?
Its melting point is 91 to 95 °C.

For `C[C@H]1CN(Cc2ccc3c(N)ncnc3c2)C(=O)[C@H](C)N1C(=O)C=Cc1ccc(Cl)s1` (as salt: salt) [Example 669, (3S, 5S)-1-(4-Amino-quinazolin-7-ylmethyl)-4-[3-(5-chloro-thiophen-2-yl)-acryloyl]-3,5-dimethyl-piperazin-2-one], which melting point is on record?
Its melting point is 116 to 120 °C.

With `N=C(N)c1ccc(CN2CCC(Cc3nc4ccc(Cl)cc4[nH]3)CC2=O)cc1` (stereo not drawn) (as salt: salt) [Example 815, 4-[4-(6-Chloro-1H-benzoimidazol-2-ylmethyl)-2-oxo-piperidin-1-ylmethyl]-benzamidine] as the compound, how does the melting point read?
Its melting point is 105 to 110 °C.

With `C[C@@H]1CN(Cc2ccc3c(N)ncnc3c2)C(=O)[C@H](C)N1CC=Cc1ccc(Cl)s1` (as salt: trifluoroacetic acid salt) [Example 665, (3S,5R)-1-(4-Amino-quinazolin-7-ylmethyl)-4-[3-(5-chloro-thiophen-2-yl)-allyl]-3,5-dimethyl-piperazin-2-one] as the compound, how does the melting point read?
Its melting point is 67 to 70 °C.

With `CC(=N)N1CC[C@H](Oc2ccc([C@H](Cc3ccc4ccc(C(=N)N)cc4c3)C(=O)O)cc2)C1` [DX-9065a] as the compound, how does the neointimal proliferation [1] read?
Its neointimal proliferation is “less neointimal proliferation”.

With `C[C@H]1CN(Cc2ccc3c(N)ncnc3c2)C(=O)[C@H](C)N1S(=O)(=O)C=Cc1ccc(Cl)s1` [Example 667, (3S, 5S)-1-(4-Amino-quinazolin-7-ylmethyl)-4-[2-(5-chloro-thiophen-2-yl)-ethenesulfonyl]-3,5-dimethyl-piperazin-2-one] as the compound, how does the melting point read?
Its melting point is 218 to 221 °C.

Which melting point does the source give for `C[C@H]1CN(Cc2ccc3c(N)ncnc3c2)C(=O)[C@H](C)N1S(=O)(=O)c1cc2ccc(Cl)cc2s1` [Example 668, (3S, 5S)-1-(4-Amino-quinazolin-7-ylmethyl)-4-(6-chloro-benzo[b]thiophen-2-sulfonyl)-3,5-dimethyl-piperazin-2-one] here?
Its melting point is 224 to 226 °C.

Which melting point does the source give for `Nc1ncnc2cc(CN3CCC(Cc4nc5ccc(Cl)cc5[nH]4)CC3=O)ccc12` (stereo not drawn) [Example 816, 1-(4-Amino-quinazolin-7-ylmethyl)-4-(6-chloro-1H-benzoimidazol-2-ylmethyl)-piperidin-2-one] here?
Its melting point is 128 to 132 °C.

Which melting point does the source give for `Nc1n[nH]c2cc(CN3CCN(Cc4cc5ccc(Cl)cc5s4)CC3=O)ccc12` [Example 874, 1-(3-Amino-1H-indazol-6-ylmethyl)-4-(6-chloro-benzo[b]thiophen-2-ylmethyl)-piperazin-2-one] here?
The melting point was 246 to 248 °C.

Which melting point does the source give for `Nc1n[nH]c2cc(CN3CCN(S(=O)(=O)c4cc5ccc(Cl)cc5s4)CC3=O)ccc12` [Example 876, 1-(3-Amino-1H-indazol-6-ylmethyl)-4-(6-chloro-benzo[b]thiophene-2-sulfonyl)-piperazin-2-one] here?
The melting point was 274 to 276 °C.

With “TAP: named only as TAP; cited (F Bono, et al.) where the mitogenic effect of Factor Xa is said to depend on its enzymatic activity (YNRLCIKPRDWIDECDSNEGGERAYFRNGKGGCDSFWICPEDHTGADYYSSYRDCFNACI; ends and bridges not checked; cysteine pairing not given here; UniProt P17726 1-60, looked up)” as the compound, how does the “mitogenesis of rat cultured vascular smooth muscle cells” value [2] read?
The value was “inhibited”.

What about the “mitogenesis of human cultured vascular smooth muscle cells” value [3] of the same compound?
The value was “inhibited”.
